Here are results for 2 compounds from paper PMC5406667, “Antiretroviral Activity Of a Novel Pyrimidyl-Di(Diazaspiroalkane) Derivative” (Acta Naturae, 2017).

Values joined by “and” are separate entries in the source; they are usually repeats but may differ in a detail not shown here. Equal entries are not always repeated. Where two headings read alike, the source gives them in different places.

One series has as its system MT-2. To be noted: read-out: CC50 (cytotoxic concentration), MT-2 cells. The method, then: (§1) Our studies were carried out at the National Cancer Institute (National Cancer Institute, Bethesda, Maryland, USA). Antiviral activity was assessed using the XTT test with various concentrations of the compound and incubation of cells (CEM-SS, MT-2, MT-4) in the presence of serial dilutions of dispiropiperazine 2 (dissolved in dimethyl sulphoxide, DMSO) for 6 days at a temperature of 37°C and humidified atmosphere with 5% CO2, followed by addition of XTT reagents. The method is based on a spectrometric measurement of the level of formazan transformed by living cells from a water-soluble tetrazolium salt, XTT.

A further series relates to MT-4. To be noted: read-out: CC50 (cytotoxic concentration), MT-4 cells. As to the method:
as §1

A further series relates to CEM-SS. To be noted: read-out: CC50 (cytotoxic concentration), CEM-SS cells. As to the method: as §1
The test system of another series is HIV-1 IIIB. Conditions: MT-4 cells. The method, then:
as §1
(§2) The following HIV strains were used: the reference HIV-1 IIIB strain; the AZT-sensitive HIV-1 6S, HIV- 1 RF strains; the drug-resistant HIV-1 N119 strains (resistant to nevirapine, Y181C mutation), HIV-1 DPS (resistant to diphenyl sulfone, Y181C mutation), and HIV-1 A-17 (resistant to nevirapine, K103N and Y181C mutations). We also used the HIV-2 ROD strain and simian immunodeficiency virus SIV MAC 251.

Another series relates to HIV-1 RF. To be noted: CEM-SS cells. The method, then: as §1, §2
The next series concerns HIV-1 A-17. Conditions: for IC50: HIV-1 A-17 (resistant to nevirapine, K103N and Y181C), 6 days, XTT. The method, then:
as §1, §2

The subject of another series is HIV-1 N119. The method, then:
as §1, §2

Another series concerns SIV MAC 251. Conditions: SIV MAC 251, MT-4 cells. As to the method:
as §1, §2

The next series deals with HIV-1 6S. The method, then:
as §1, §2

A further series concerns HIV-2 ROD. To be noted: CEM-SS cells. As to the method:
as §1, §2

The next series concerns HIV-1 DPS. Conditions: MT-4 cells. The method, then:
as §1, §2

On the set-up of series [1]: method as in PMID 15341064. To be noted: degradation accompanied by the formation of nitric oxide; cited from earlier work.
A further series deals with cellular HSPG. The arrangement: method as in earlier work. To be noted: prevents virus binding; cited from earlier work.
A further series concerns herpes viruses. To be noted: cited from earlier work.

Consider “3,3’-(5-nitropyrimidine-4,6-diyl)bis-3,12-diaza-6,9-diazoniadispiro[ 5.2.5.2]hexadecane tetrachloride dihydrochloride [Compound 2]”, for which the CC50 in the series with MT-2 (HIV-1 6S experiment) was 98.2 µM; in the series with MT-2 (HIV-1 A-17 experiment), 79.1 µM; in the series on MT-4 (HIV-1 A-17 experiment), 200 µM; in the series with MT-4 (HIV-1 DPS experiment), 200 µM; in the series on MT-4 (HIV-1 IIIB experiment) it was 200 µM; in the series with MT-4 (HIV-1 N119 experiment), 200 µM. For the same compound, the CC50 was determined as 200 µM in the series on MT-4 (SIV MAC 251 experiment), 197 µM with CEM-SS (HIV-1 RF experiment) and 200 µM in the series on CEM-SS (HIV-2 ROD experiment). Also, the IC50 came out at 5.7 µM in the series with HIV-1 IIIB (HIV-1 IIIB (reference strain), 6 days, XTT); 150 µM with HIV-1 RF (HIV-1 RF (AZT-sensitive), 6 days, XTT); 4.7 µM with HIV-1 A-17 (MT-2 cells); 33.7 µM in the series on HIV-1 A-17 (MT-4 cells); 31.7 µM in the series with HIV-1 N119 (HIV-1 N119 (resistant to nevirapine, Y181C), MT-4 cells, 6 days, XTT); 6.3 µM in the series with SIV MAC 251 (6 days, XTT). In addition, the IC50 in the series on HIV-1 6S is 1.37 µM and 1.4 µM; in the series on HIV-2 ROD (6 days, XTT), 13.3 µM; in the series on HIV-1 DPS (HIV-1 DPS (resistant to diphenyl sulfone, Y181C), 6 days, XTT), 1.17 µM and 1.2 µM. Moreover, the “TI (CC50/IC50), therapeutic index” value in the series with HIV-1 IIIB (HIV-1 IIIB) amounted to 35.0; in the series on HIV-1 RF (HIV-1 RF), 1.3; with HIV-1 A-17 (HIV-1 A-17, MT-2 cells), 16.7; with HIV-1 A-17 (HIV-1 A-17, MT-4 cells) it was 5.9; in the series with HIV-1 N119 (HIV-1 N119, MT-4 cells), 6.3; in the series with SIV MAC 251 it was 31.5. The “TI (CC50/IC50), therapeutic index” value in the series on HIV-1 6S (HIV-1 6S, MT-2 cells) stood at 71.4; in the series on HIV-2 ROD, 15.0; in the series with HIV-1 DPS (HIV-1 DPS), 170.0.

For the compound `[O-][n+]1onc2ncnc(N3CC[N+]4(CC3)CC[N+]3(CCN(c5ncnc6no[n+]([O-])c56)CC3)CC4)c21` [Compound 1, N,N’-(bis-1-oxido[1,2,5]oxadiazolo [3,4d]-nitropyrimidine-7-il)-3,12-diaza-6,9-diazonia(5,2,5,2)dispirohexane dichloride], in series [1], the Metabolic stability entry is “metabolic instability”. In the series with cellular HSPG, the “Binding to cellular HSPG” value was “effective reversible binding to cellular HSPG”. Besides, the “Inhibition of replication in herpes viruses” value in the series with herpes viruses is given as “inhibits replication in herpes viruses”.
